Test results reported in US20030086872A1, “SUT-2 and SUT-3 genes, proteins and assays for inhibitors of lymphocyte adhesion” (priority 2001, published 2003).
Entries after “also recorded” stand apart in the source; their conditions may differ.

Assays:
[1] = biological target: T1, SAT-1 (Rattus norvegicus, UniProt P45380); settings: rat hepatocytes; cited from earlier work
T1 sequence (P45380 1-703): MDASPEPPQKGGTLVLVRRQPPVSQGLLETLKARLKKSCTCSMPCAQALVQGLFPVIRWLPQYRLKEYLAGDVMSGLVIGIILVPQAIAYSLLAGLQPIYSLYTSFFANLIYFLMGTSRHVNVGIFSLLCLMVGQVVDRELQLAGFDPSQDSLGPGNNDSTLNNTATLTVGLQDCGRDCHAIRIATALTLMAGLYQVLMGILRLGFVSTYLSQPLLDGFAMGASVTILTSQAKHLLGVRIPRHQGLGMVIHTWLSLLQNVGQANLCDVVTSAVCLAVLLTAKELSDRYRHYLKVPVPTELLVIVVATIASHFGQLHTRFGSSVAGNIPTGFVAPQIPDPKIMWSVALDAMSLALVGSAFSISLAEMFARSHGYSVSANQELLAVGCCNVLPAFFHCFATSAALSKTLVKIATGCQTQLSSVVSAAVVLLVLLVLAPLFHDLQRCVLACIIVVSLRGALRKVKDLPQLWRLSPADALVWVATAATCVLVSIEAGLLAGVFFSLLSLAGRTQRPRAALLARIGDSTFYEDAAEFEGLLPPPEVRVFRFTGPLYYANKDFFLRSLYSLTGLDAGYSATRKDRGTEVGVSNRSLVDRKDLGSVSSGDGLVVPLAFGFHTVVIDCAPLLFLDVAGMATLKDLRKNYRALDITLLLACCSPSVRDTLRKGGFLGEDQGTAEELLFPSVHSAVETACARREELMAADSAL

[2] = biological target: T2, NaSi-1 (Rattus norvegicus, UniProt Q07782); settings: rat kidney and small intestine; cited from earlier work
T2 sequence (Q07782 1-595): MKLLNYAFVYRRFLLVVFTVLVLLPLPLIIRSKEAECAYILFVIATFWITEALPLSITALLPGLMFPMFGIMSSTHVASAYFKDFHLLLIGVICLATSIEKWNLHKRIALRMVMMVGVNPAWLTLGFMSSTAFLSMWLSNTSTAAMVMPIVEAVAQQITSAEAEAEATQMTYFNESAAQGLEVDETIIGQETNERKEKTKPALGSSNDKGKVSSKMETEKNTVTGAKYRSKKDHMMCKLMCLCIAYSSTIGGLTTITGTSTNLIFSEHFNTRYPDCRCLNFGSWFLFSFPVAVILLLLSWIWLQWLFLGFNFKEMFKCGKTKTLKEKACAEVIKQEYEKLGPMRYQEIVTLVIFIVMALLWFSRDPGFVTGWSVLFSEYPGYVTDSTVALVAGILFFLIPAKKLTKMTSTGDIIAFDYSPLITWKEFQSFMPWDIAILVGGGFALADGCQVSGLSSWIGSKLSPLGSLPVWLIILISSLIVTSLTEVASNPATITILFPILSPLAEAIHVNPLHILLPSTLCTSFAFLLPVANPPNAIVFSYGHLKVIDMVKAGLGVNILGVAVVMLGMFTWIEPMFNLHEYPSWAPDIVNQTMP

[3] = biological target: T3, DTD (Homo sapiens, UniProt P50443); settings: cited from earlier work
T3 sequence (P50443 1-739): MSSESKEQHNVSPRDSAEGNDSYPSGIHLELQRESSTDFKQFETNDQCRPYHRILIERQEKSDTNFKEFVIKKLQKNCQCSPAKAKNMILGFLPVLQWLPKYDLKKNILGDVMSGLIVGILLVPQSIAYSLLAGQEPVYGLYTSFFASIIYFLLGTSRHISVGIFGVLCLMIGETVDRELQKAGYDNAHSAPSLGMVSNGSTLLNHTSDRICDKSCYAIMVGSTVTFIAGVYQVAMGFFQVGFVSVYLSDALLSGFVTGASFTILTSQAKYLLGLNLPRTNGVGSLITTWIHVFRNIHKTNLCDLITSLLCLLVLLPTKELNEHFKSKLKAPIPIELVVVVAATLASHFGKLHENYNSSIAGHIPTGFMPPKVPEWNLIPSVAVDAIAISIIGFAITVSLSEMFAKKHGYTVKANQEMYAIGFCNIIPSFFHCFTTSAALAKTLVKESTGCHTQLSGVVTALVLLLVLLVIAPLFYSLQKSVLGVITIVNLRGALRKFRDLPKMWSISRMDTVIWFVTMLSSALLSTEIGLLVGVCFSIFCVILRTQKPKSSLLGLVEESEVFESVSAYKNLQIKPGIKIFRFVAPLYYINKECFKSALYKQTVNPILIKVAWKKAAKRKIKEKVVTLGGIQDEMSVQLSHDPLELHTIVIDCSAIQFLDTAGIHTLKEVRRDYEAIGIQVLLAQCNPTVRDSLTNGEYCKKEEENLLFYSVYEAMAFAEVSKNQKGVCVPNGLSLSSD

[4] = biological target: T4, SUT-3 (Homo sapiens, UniProt Q86WA9); assay: Sulfate uptake by Sf9 insect cells infected with baculovirus expressing SUT-3; format: cell-based; settings: 1 mM DIDS; uptake of 500 μM Na2SO4; Sf9 cells infected at MOI of 5
T4 construct: The full length SLC26A11 ORF was PCR amplified from IMAGE clone; expressed in transfected cells; host or cells: Sf9 insect cells infected with recombinant baculovirus (pVL1393-SUT-3, polyhedrin promoter)
T4 sequence (Q86WA9 1-606): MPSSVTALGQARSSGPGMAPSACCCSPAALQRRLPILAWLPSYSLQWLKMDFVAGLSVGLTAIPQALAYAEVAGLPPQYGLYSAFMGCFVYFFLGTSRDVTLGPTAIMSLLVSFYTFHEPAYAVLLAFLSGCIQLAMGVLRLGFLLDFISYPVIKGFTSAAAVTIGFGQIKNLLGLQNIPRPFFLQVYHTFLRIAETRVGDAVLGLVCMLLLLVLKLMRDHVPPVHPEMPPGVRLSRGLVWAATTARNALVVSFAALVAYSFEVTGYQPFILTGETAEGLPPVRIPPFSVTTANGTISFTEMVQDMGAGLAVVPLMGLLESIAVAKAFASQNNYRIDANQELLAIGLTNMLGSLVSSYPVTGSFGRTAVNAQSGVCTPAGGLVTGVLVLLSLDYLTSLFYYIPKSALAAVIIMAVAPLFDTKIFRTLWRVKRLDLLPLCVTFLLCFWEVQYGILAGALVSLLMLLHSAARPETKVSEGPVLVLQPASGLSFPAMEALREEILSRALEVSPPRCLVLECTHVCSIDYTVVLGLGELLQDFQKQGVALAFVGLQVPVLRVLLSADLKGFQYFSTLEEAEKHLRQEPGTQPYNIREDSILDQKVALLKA
Experimental: The full length SLC26A11 ORF was PCR amplified from IMAGE clone N^o 4793646, with 10 pmol of primers ATG-SUT-3 (5′-[…]) (SEQ ID NO: 21) and STOP-SUT-3 (5′-[…]-3′)(SEQ ID NO: 22), using 3 units of Pfu (Promega) in its reaction buffer with 400 μM dNTP. PCR cycles were 30×(94° C., 1′, 60° C., 1′, 72° C., 4′). The PCR product was then phosphorylated at its 5′ extremities using 2 units of T4 Polynucleotide Kinase (PROMEGA). 2 μg of pVL1393 vector (BD Biosciences) were digested with 10 units of EcoRI and NotI endonucleases, extremities were blunt-ended with 10 units of T4 DNA polymerase (PROMEGA) and 5′ extremities were dephosphated with 1 unit of Calf Intestine Phosphatase (Boehringer). 100 ng of purified insert and vector were then ligated together using 1 unit of T4 DNA Ligase (Biolabs). All enzymes were used according to supplier's instructions. After restriction analysis, DNA sequencing was performed using the Big Dye Sequencing Kit (Perkin Elmer) according to manufacturer's protocol. […]
For all experiments, 80 cm^2 flasks containing 60% confluent Sf9 cells were infected at a MOI of 5 and incubated for 3 days at 27° C. for protein expression. […] Protein concentration was evaluated using the BIO-RAD protein Assay Kit according to the manufacturer's protocol and cell-associated radioactivity was determined in a Tri-Carb 2100 liquid scintillation counter (Packard). […]

[5] = biological target: T5, SUT-1 (Homo sapiens, UniProt Q9UKG4); settings: cited from earlier work
T5 sequence (Q9UKG4 1-626): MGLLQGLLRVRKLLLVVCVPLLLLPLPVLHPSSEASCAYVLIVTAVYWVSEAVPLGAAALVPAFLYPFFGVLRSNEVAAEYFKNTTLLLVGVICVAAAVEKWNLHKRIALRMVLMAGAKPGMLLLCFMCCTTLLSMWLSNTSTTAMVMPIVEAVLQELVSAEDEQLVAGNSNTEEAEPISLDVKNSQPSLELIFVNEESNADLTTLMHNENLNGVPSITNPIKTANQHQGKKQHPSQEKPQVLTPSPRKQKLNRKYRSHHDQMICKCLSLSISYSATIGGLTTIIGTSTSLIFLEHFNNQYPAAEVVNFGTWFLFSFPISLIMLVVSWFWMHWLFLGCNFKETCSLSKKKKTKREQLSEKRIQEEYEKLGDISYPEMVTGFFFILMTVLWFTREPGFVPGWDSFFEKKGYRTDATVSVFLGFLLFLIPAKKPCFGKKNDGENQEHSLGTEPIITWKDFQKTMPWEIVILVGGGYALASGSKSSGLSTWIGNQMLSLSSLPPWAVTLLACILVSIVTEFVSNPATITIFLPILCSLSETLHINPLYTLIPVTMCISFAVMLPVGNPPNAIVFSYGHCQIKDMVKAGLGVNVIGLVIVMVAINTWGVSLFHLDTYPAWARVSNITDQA

[6] = biological target: T6, DRA (Homo sapiens, UniProt P40879); settings: cited from earlier work
T6 sequence (P40879 1-764): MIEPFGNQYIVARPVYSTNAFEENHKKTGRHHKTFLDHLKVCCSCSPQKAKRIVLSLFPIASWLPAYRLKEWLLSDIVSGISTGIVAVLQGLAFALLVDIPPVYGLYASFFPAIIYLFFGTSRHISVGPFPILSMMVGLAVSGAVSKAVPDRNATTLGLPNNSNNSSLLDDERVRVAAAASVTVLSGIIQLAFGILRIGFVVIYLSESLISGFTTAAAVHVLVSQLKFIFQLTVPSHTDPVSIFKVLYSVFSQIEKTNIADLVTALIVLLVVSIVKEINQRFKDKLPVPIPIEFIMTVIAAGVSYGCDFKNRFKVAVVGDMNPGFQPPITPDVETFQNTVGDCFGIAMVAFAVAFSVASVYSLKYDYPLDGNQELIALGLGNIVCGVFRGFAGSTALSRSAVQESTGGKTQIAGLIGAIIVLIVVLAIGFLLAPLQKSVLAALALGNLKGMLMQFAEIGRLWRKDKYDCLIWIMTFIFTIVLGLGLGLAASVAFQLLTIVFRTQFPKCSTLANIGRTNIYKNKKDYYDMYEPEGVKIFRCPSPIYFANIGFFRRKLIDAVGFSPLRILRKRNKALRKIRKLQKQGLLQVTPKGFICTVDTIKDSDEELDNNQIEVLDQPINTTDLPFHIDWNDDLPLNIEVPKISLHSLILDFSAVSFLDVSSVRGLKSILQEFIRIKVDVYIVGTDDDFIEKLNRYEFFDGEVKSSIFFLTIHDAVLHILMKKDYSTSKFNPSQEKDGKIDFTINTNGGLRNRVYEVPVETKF

[7] = tested on: selectins; settings: cited from earlier work

For O=S(=O)(O)c1cc(N=C=S)ccc1C=Cc1ccc(N=C=S)cc1S(=O)(=O)O [DIDS, 4,4′-diisothiocyanostilbene-2,2′-disulfonic acid], the “sensitivity of SAT-1 sulfate transport to DIDS” value [1] is given as “sensitive”, the “sensitivity of NaSi-1 sulfate transport to DIDS” value [2] is given as “resistant” and the “sensitivity of DTD to DIDS” value [3] is given as “sensitive”. The “inhibition of SUT-3-mediated sulfate uptake” value [4] was “sensitive; also recorded: efficiently inhibited”, the “sensitivity of SUT-1 sulfate transport to DIDS” value [5] was “resistant” and the “sensitivity of DRA to DIDS” value [6] was “sensitive”.
In the case of COc1cc2c(c(OC)c1OC)-c1ccc(OC)c(=O)cc1[C@@H](NC(C)=O)CC2 [colchicine], the “endothelial expression of selectins” value [7] is listed as “downregulate”.
